Results taken from ChEMBL document CHEMBL5244235, “Diarylpentanoids with antitumor activity: A critical review of structure-activity relationship studies” (Eur J Med Chem, 2020).

Experiments:
[1] = test system: B16; assay: Antiproliferative activity against mouse B16 cells assessed as cell growth inhibition; type: functional, cell-based
[2] = test system: L1210; assay: Antiproliferative activity against mouse L1210 cells assessed as inhibition of cell growth; type: functional, cell-based
[3] = test system: MDA-MB-231; assay: Growth inhibition of human MDA-MB-231 cells measured after 72 hrs by microplate reader analysis; type: functional
[4] = Cytotoxicity against mouse MS-1 cells assessed as cell growth inhibition by anti-angiogenisis screening assay; type: toxicity, cell-based
[5] = test system: NCI-H460; assay: Anticancer activity against human NCI-H460 cells assessed as cell growth inhibition; type: functional
[6] = test system: RPMI-7951; assay: Growth inhibition of human RPMI-7951 cells measured after 72 hrs by microplate reader analysis; type: functional, cell-based; conditions: RPMI-7951, time 72 hrs
[7] = Cytotoxicity against HUVEC cells assessed as cell growth inhibition by anti-angiogenisis screening assay; type: toxicity, cell-based; conditions: human
[8] = test system: A549; assay: Anticancer activity against human A549 cells assessed as cell growth inhibition; type: functional
[9] = Cytotoxicity against mouse SVR cells assessed as cell growth inhibition by anti-angiogenisis screening assay; type: toxicity, cell-based
[10] = Antiproliferative activity against human H-111-TC cells assessed as cell growth inhibition by MTT assay; type: functional, cell-based
[11] = test system: GCIY; assay: Antiproliferative activity against human GCIY cells assessed as cell growth inhibition by MTT assay; type: functional, cell-based
[12] = test system: HUVEC; assay: Anti-angiogenesis activity in HUVEC cells; type: functional, cell-based; conditions: Homo sapiens
[13] = test system: HeLa; assay: Antiproliferative activity against human HeLa cells assessed as cell growth inhibition measured after 72 hrs by MTT assay; type: functional, cell-based; conditions: Homo sapiens, HeLa, 72 h
[14] = Antiproliferative activity against human KATO III stomach cancer cell line assessed as cell growth inhibition by MTT assay; type: functional, cell-based
[15] = test system: Ca-Ski; assay: Antiproliferative activity against human Ca-Ski cells assessed as cell growth inhibition measured after 72 hrs by MTT assay; type: functional, cell-based
[16] = Antiproliferative activity against human SH-10-TC cells assessed as cell growth inhibition by MTT assay; type: functional, cell-based
[17] = test system: LS174T; assay: Antiproliferative activity against human LS174T cells assessed as cell growth inhibition by MTT assay; type: functional, cell-based
[18] = test system: A549; assay: Antiproliferative activity against human A549 cells assessed as cell growth inhibition measured after 24 hrs by MTT assay; type: functional, cell-based; conditions: A549, 24 h
[19] = test system: NCI-H460; assay: Antiproliferative activity against human NCI-H460 cells assessed as cell growth inhibition measured after 24 hrs by MTT assay; type: functional, cell-based; conditions: NCI-H460, 24 h
[20] = test system: A549; assay: Antiproliferative activity against human A549 cells assessed as cell growth inhibition measured after 72 hrs; type: functional, cell-based; conditions: A549, 72 h
[21] = Antiproliferative activity against human PK-1 cells assessed as cell growth inhibition measured after 72 hrs; type: functional, cell-based; conditions: PK-1, 72 h
[22] = test system: 8505C; assay: Antiproliferative activity against human 8505C cells assessed as cell growth inhibition measured after 72 hrs; type: functional, cell-based
[23] = test system: MCF7; assay: Antiproliferative activity against human MCF7 cells assessed as cell growth inhibition measured after 72 hrs; type: functional, cell-based; conditions: MCF7, 72 h
[24] = test system: ACHN; assay: Antiproliferative activity against human ACHN cells assessed as cell growth inhibition measured after 72 hrs; type: functional, cell-based
[25] = test system: HuCCT-1; assay: Antiproliferative activity against human HuCCT-1 cells assessed as cell growth inhibition measured after 72 hrs; type: functional, cell-based; conditions: HuCCT-1, 72 h
[26] = test system: HCT-116; assay: Antiproliferative activity against human HCT-116 cells assessed as cell growth inhibition measured after 72 hrs; type: functional, cell-based; conditions: HCT-116, 72 h
[27] = test system: PC-3; assay: Antiproliferative activity against human PC-3 cells assessed as cell growth inhibition measured after 72 hrs; type: functional, cell-based; conditions: PC-3, 72 h
[28] = Antiproliferative activity against human OVK18 cells assessed as cell growth inhibition measured after 72 hrs; type: functional, cell-based; conditions: OVK18, 72 h
[29] = test system: Huh-7; assay: Antiproliferative activity against human Huh-7 cells assessed as cell growth inhibition measured after 72 hrs; type: functional, cell-based; conditions: Huh-7, 72 h
[30] = test system: A-431; assay: Antiproliferative activity against human A-431 cells assessed as cell growth inhibition measured after 72 hrs; type: functional, cell-based; conditions: A-431, 72 h
[31] = Antiproliferative activity against human SH-10-TC cells assessed as cell growth inhibition measured after 72 hrs; type: functional, cell-based
[32] = test system: DLD-1; assay: Antiproliferative activity against human DLD-1 cells assessed as cell growth inhibition measured after 96 hrs; type: functional, cell-based; conditions: DLD-1, 96 h
[33] = test system: DLD-1; assay: Antiproliferative activity against human DLD-1 cells assessed as cell growth inhibition measured after 72 hrs; type: functional, cell-based; conditions: DLD-1, 72 h
[34] = test system: G-361; assay: Antiproliferative activity against human G-361 cells assessed as cell growth inhibition measured after 72 hrs; type: functional, cell-based; conditions: G-361, 72 h
[35] = test system: GCIY; assay: Antiproliferative activity against human GCIY cells assessed as cell growth inhibition measured after 72 hrs; type: functional, cell-based
[36] = Antiproliferative activity against human Panel NCI-58 (58 carcinoma cell lines) assessed as cell growth inhibition; type: functional
[37] = test system: L1210; assay: Antiproliferative activity against mouse L1210 cells assessed as cell growth inhibition measured after 72 hrs by MTT assay; type: functional, cell-based; conditions: L1210, 72 h
[38] = test system: B16; assay: Antiproliferative activity against mouse B16 cells assessed as cell growth inhibition measured after 72 hrs by MTT assay; type: functional, cell-based; conditions: B16, 72 h
[39] = test system: Panel CNS (Carcinoma cell lines); assay: Antiproliferative activity against human Panel CNS (Carcinoma cell lines) assessed as cell growth inhibition measured after 72 hrs by neutral red assay; type: functional
[40] = test system: Panel breast (Carcinoma cell lines); assay: Antiproliferative activity against human Panel breast (Carcinoma cell lines) assessed as cell growth inhibition measured after 72 hrs by neutral red assay; type: functional
[41] = test system: RPMI-7951; assay: Antiproliferative activity against human RPMI-7951 cells assessed as cell growth inhibition measured after 72 hrs by neutral red assay; type: functional
[42] = test system: Panel leukemia (Carcinoma cell lines); assay: Antiproliferative activity against human Panel leukemia (Carcinoma cell lines) assessed as cell growth inhibition measured after 72 hrs by neutral red assay; type: functional
[43] = Anti-angiogenesis activity in […] MS-1 cells assessed as cell growth inhibition; type: functional, cell-based
[44] = test system: Panel prostate (Carcinoma cell lines); assay: Antiproliferative activity against human Panel prostate (Carcinoma cell lines) assessed as cell growth inhibition measured after 72 hrs by neutral red assay; type: functional
[45] = test system: Panel colon (Carcinoma cell lines); assay: Antiproliferative activity against human Panel colon (Carcinoma cell lines) assessed as cell growth inhibition measured after 72 hrs by neutral red assay; type: functional
[46] = test system: SVR; assay: Anti-angiogenesis activity in mouse SVR cells assessed as cell growth inhibition; type: functional, cell-based
[47] = test system: HUVEC; assay: Anti-angiogenesis activity in HUVEC cells assessed as cell growth inhibition; type: functional, cell-based; conditions: Homo sapiens
[48] = test system: Panel melanoma (Carcinoma cell lines); assay: Antiproliferative activity against human Panel melanoma (Carcinoma cell lines) assessed as cell growth inhibition measured after 72 hrs by neutral red assay; type: functional
[49] = test system: NSCLC; assay: Antiproliferative activity against human NSCLC cells assessed as cell growth inhibition measured after 72 hrs by neutral red assay; type: functional
[50] = test system: MDA-MB-231; assay: Antiproliferative activity against human MDA-MB-231 cells assessed as cell growth inhibition measured after 72 hrs by neutral red assay; type: functional
[51] = test system: Panel ovarian (Carcinoma cell lines); assay: Antiproliferative activity against human Panel ovarian (Carcinoma cell lines) assessed as cell growth inhibition measured after 72 hrs by neutral red assay; type: functional
[52] = test system: Panel renal (Carcinoma cell lines); assay: Antiproliferative activity against human Panel renal (Carcinoma cell lines) assessed as cell growth inhibition measured after 72 hrs by neutral red assay; type: functional
[53] = test system: SAOS-2; assay: Antiproliferative activity against human SAOS-2 cells assessed as cell viability by WST-1 assay; type: functional, cell-based
[54] = test system: HCT-116; assay: Antiproliferative activity against human HCT-116 cells assessed as cell viability by WST-1 assay; type: functional, cell-based
[55] = test system: U-937; assay: Antiproliferative activity against human U-937 cells assessed as cell viability by WST-1 assay; type: functional, cell-based
[56] = test system: Jurkat E6.1; assay: Antiproliferative activity against human Jurkat E6.1 cells assessed as cell viability by WST-1 assay; type: functional, cell-based
[57] = test system: HT-29; assay: Antiproliferative activity against human HT-29 cells assessed as cell viability measured after 24 hrs by XTT assay; type: functional, cell-based; conditions: HT-29, 24 h
[58] = test system: HCT-116; assay: Antiproliferative activity against human HCT-116 cells assessed as cell viability measured after 24 hrs by XTT assay; type: functional, cell-based; conditions: HCT-116, 24 h
[59] = Cytotoxicity activity against mouse SVR cells assessed as cell growth inhibition at 6 ug/ml relative to control; type: toxicity, cell-based; conditions: at 6 µg/mL
[60] = Cytotoxicity activity against mouse SVR cells assessed as cell growth inhibition at 3 ug/ml relative to control; type: toxicity, cell-based; conditions: at 3 µg/mL
[61] = test system: A549; assay: Antiproliferative activity against human A549 cells assessed as cell growth inhibition measured after 48 hrs by MTT assay; type: functional, cell-based; conditions: A549, 48 h
[62] = test system: NCI-H460; assay: Antiproliferative activity against human NCI-H460 cells assessed as cell growth inhibition measured after 48 hrs by MTT assay; type: functional, cell-based; conditions: NCI-H460, 48 h
[63] = test system: A2780; assay: Antiproliferative activity against human A2780 cells assessed as cell viability at 10 uM measured after 24 hrs by MTT assay relative to control; type: functional; conditions: read-out: Activity

COc1cc(/C=C2\CNC/C(=C\c3cc(OC)cc(OC)c3OC)C2=O)c(OC)c(OC)c1
IC50 [1]: 200 nM | IC50 [2]: 300 nM

O=C(/C=C/c1ccccc1F)/C=C/c1ccccc1F
GI50 [3]: 1000 nM | GI50 [4]: 6100 nM | GI50 [5]: 11300 nM | GI50 [6]: 2300 nM | GI50 [7]: 6100 nM | GI50 [8]: 17000 nM | GI50 [9]: 6100 nM

COc1cc(/C=C/C(=O)/C=C/c2ccc(O)c(OC)c2)ccc1O
IC50 [10]: 3670 nM | IC50 [11]: 7320 nM | IC50 [12]: 400 nM | EC50 [13]: 1030 nM | IC50 [14]: 5980 nM | EC50 [15]: 1030 nM | IC50 [16]: 3280 nM | IC50 [17]: 3700 nM

COc1cc(/C=C/C(=O)CC(=O)/C=C/c2ccc(O)c(OC)c2)ccc1O [CURCUMIN]
IC50 [18]: 32500 nM | IC50 [19]: 5300 nM

C=C1CC2CC(C1)/C(=C\c1ccc(OC)c(OC)c1)C(=O)/C2=C/c1ccc(OC)c(OC)c1
IC50 [20]: > 50000 nM | IC50 [21]: > 50000 nM | IC50 [22]: > 50000 nM | IC50 [23]: > 50000 nM | IC50 [24]: > 50000 nM | IC50 [25]: > 50000 nM | IC50 [26]: > 50000 nM | IC50 [27]: > 50000 nM | IC50 [28]: > 50000 nM | IC50 [29]: > 50000 nM | IC50 [30]: > 50000 nM | IC50 [31]: > 50000 nM | IC50 [32]: 8000 nM | IC50 [33]: > 50000 nM | IC50 [34]: > 50000 nM | IC50 [35]: > 50000 nM

CCOc1cc(/C=C2\CN(C)C/C(=C\c3ccc(O)c(OCC)c3)C2=O)ccc1O
GI50 [36]: 1400 nM

COc1cc(/C=C2\CC(c3ccccc3)C/C(=C\c3cc(OC)c(OC)c(OC)c3)C2=O)cc(OC)c1OC (centres undefined)
IC50 [37]: 120 nM | IC50 [38]: 510 nM

O=C1/C(=C/c2ccccc2O)CCC/C1=C\c1ccccc1O
GI50 [39]: 1600 nM | GI50 [40]: 1600 nM | GI50 [41]: 1600 nM | GI50 [42]: 1600 nM | GI50 [43]: 2000 nM | GI50 [44]: 1600 nM | GI50 [45]: 1600 nM | GI50 [46]: 2000 nM | GI50 [47]: 2000 nM | GI50 [48]: 1600 nM | GI50 [49]: 1600 nM | GI50 [50]: 1600 nM | GI50 [51]: 1600 nM | GI50 [52]: 1600 nM

O=C1/C(=C/c2ccc(O)c(O)c2)COC/C1=C\c1ccc(O)c(O)c1
IC50 [53]: 1450 nM | IC50 [54]: 1450 nM | IC50 [55]: 1450 nM | IC50 [56]: 1450 nM

CN1C/C(=C\c2ccccn2)C(=O)/C(=C/c2ccccn2)C1
IC50 [57]: 620 nM | IC50 [58]: 620 nM

O=C1/C(=C/c2ccccn2)CCC/C1=C\c1ccccn1
inhibition at 6 ug/ml [59]: 96% | inhibition at 3 ug/ml [60]: 90.1%

O=C1/C(=C/c2ccccc2F)CCC/C1=C\c1ccccc1F
IC50 [61]: 30500 nM | IC50 [62]: 28700 nM

O=C1/C(=C/c2cccc(O)c2)CNC/C1=C\c1cccc(O)c1
IC50 [1]: 200 nM | IC50 [2]: 300 nM

CCN1C/C(=C\c2ccc(OC)c(OC)c2OC)C(=O)/C(=C/c2ccc(OC)c(OC)c2OC)C1
IC50 [18]: 5300 nM | IC50 [19]: 2300 nM

CC1(C)C=C(CN2C/C(=C\c3ccc(F)cc3)C(=O)/C(=C/c3ccc(F)cc3)C2)C(C)(C)N1O
viability at 10 µM [63]: 20%

O=C1/C(=C/c2ccc([N+](=O)[O-])cc2)CC(c2ccccc2)C/C1=C\c1ccc([N+](=O)[O-])cc1 (centres undefined)
IC50 [37]: 350 nM | IC50 [38]: 1600 nM
